Experimental data taken from the kinase profiling compilation of Christmann-Franck et al. (2016).

Columns and labels:
Assay in all cases: KINOMEscan competition binding
Conditions in all cases: compound 10.0 µM
PRKG1 (human) = PRKG1 (human) (UniProt Q13976)
EPHB4 (human) = EPHB4 (human) (UniProt P54760)
HCK (human) = HCK (human) (UniProt P08631)
MAPKAPK5 (human) = MAPKAPK5 (human) (UniProt Q8IW41)
STK38L (human) = STK38L (human) (UniProt Q9Y2H1)
MYLK2 (human) = MYLK2 (human) (UniProt Q9H1R3)
PIK3C2G (human) = PIK3C2G (human) (UniProt O75747)
EPHA1 (human) = EPHA1 (human) (UniProt P21709)
MYLK4 (human) = MYLK4 (human) (UniProt Q86YV6)
MAPK1 (human) = MAPK1 (human) (UniProt P28482)
NIM1 (human) = NIM1 (human) (UniProt Q8IY84)
[1] = tested on: RET (human), P07949 [M918T]
DAPK2 (human) = DAPK2 (human) (UniProt Q9UIK4)
PRKD3 (human) = PRKD3 (human) (UniProt O94806)
PKMYT1 (human) = PKMYT1 (human) (UniProt Q99640)
AKT3 (human) = AKT3 (human) (UniProt Q9Y243)
RPS6KA4 KD2 (human) = RPS6KA4 KD2 (human) (UniProt O75676)
ABL1 (human) = ABL1 (human) (UniProt P00519)
PIK3CD (human) = PIK3CD (human) (UniProt O00329)
EPHB2 (human) = EPHB2 (human) (UniProt P29323)
PHKG2 (human) = PHKG2 (human) (UniProt P15735)
HIPK4 (human) = HIPK4 (human) (UniProt Q8NE63)
SIK3 (human) = SIK3 (human) (UniProt Q9Y2K2)
[2] = tested on: EGFR (human), P00533 [T790M]
STK38 (human) = STK38 (human) (UniProt Q15208)
MAP3K6 (human) = MAP3K6 (human) (UniProt O95382)
FRK (human) = FRK (human) (UniProt P42685)
MYLK (human) = MYLK (human) (UniProt Q15746)
DDR1 (human) = DDR1 (human) (UniProt Q08345)
RPS6KA6 KD1 (human) = RPS6KA6 KD1 (human) (UniProt Q9UK32)
ULK2 (human) = ULK2 (human) (UniProt Q8IYT8)
LIMK2 (human) = LIMK2 (human) (UniProt P53671)
SRPK1 (human) = SRPK1 (human) (UniProt Q96SB4)
[3] = tested on: ABL1 (human), P00519 [H396P]

PIK3CD (human), sequence (O00329 whole entry, looked up): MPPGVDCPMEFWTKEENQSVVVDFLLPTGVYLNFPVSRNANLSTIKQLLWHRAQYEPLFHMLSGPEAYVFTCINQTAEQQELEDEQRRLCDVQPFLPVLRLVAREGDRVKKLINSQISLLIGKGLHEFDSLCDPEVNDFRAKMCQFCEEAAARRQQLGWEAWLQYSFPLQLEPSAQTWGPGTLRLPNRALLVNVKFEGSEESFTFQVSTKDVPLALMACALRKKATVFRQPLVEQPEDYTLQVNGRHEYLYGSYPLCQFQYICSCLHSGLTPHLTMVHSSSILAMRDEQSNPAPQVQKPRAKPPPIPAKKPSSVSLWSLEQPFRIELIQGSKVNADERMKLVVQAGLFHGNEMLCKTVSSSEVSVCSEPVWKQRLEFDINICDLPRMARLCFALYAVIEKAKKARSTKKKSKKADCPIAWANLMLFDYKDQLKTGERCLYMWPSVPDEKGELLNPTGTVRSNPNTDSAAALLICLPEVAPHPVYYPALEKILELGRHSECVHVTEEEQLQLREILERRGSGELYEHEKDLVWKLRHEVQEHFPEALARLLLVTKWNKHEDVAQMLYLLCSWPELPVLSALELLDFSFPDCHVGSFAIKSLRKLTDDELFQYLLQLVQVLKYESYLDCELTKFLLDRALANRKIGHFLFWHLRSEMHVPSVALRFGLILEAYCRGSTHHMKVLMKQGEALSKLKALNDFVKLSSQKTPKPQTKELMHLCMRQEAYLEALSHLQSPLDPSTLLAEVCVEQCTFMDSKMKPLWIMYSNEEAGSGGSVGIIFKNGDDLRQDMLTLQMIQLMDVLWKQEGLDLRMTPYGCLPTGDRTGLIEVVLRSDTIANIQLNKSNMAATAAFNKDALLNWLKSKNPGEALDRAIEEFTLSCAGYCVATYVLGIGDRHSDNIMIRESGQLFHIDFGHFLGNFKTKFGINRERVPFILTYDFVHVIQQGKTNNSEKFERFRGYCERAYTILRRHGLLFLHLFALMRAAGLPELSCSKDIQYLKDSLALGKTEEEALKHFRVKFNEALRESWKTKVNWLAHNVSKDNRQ
STK38L (human), sequence (Q9Y2H1 whole entry, looked up): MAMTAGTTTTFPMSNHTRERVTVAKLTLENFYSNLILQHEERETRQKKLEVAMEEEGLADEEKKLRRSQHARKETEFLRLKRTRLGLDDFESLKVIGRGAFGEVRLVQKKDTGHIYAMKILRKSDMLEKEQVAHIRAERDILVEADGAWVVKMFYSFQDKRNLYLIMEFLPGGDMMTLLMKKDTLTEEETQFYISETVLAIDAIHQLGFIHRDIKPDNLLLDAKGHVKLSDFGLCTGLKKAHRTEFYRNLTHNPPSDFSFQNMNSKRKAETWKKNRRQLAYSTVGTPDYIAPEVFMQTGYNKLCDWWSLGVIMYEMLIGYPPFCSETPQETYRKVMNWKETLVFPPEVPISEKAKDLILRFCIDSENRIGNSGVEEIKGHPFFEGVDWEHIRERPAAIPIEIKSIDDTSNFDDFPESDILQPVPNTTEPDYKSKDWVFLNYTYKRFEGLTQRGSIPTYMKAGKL
RET (human), P07949 [M918T], sequence (P07949 whole entry M918T, looked up): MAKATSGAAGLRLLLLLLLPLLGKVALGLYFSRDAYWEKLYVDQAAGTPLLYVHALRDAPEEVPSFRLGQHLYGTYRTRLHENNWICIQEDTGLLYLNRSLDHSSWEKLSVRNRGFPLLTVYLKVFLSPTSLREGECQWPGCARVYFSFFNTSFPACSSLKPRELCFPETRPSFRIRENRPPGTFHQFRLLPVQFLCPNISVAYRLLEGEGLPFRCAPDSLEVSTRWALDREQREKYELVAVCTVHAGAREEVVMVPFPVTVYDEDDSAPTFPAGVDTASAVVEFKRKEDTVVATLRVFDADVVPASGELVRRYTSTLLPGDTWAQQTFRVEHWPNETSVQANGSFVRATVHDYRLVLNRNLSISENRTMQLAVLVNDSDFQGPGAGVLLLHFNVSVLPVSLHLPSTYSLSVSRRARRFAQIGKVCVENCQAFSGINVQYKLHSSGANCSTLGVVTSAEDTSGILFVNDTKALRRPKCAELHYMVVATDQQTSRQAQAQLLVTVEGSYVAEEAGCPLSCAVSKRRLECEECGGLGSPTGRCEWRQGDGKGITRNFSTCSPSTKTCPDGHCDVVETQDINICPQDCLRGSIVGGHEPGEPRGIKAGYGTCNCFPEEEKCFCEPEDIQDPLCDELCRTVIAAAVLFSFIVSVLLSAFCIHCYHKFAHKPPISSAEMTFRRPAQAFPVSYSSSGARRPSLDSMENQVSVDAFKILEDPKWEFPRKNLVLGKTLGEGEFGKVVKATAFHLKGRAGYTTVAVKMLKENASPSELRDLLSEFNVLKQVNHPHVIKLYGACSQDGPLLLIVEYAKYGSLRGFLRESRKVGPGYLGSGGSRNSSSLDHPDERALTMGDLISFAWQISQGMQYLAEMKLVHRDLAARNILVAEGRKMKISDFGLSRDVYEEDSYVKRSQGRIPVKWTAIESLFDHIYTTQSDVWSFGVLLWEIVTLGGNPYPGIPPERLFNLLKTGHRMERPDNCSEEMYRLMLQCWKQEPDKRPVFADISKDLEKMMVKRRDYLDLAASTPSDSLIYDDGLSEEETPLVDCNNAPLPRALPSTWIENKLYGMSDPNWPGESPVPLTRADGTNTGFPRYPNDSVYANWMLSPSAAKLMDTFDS
SIK3 (human), sequence (Q9Y2K2 whole entry, looked up): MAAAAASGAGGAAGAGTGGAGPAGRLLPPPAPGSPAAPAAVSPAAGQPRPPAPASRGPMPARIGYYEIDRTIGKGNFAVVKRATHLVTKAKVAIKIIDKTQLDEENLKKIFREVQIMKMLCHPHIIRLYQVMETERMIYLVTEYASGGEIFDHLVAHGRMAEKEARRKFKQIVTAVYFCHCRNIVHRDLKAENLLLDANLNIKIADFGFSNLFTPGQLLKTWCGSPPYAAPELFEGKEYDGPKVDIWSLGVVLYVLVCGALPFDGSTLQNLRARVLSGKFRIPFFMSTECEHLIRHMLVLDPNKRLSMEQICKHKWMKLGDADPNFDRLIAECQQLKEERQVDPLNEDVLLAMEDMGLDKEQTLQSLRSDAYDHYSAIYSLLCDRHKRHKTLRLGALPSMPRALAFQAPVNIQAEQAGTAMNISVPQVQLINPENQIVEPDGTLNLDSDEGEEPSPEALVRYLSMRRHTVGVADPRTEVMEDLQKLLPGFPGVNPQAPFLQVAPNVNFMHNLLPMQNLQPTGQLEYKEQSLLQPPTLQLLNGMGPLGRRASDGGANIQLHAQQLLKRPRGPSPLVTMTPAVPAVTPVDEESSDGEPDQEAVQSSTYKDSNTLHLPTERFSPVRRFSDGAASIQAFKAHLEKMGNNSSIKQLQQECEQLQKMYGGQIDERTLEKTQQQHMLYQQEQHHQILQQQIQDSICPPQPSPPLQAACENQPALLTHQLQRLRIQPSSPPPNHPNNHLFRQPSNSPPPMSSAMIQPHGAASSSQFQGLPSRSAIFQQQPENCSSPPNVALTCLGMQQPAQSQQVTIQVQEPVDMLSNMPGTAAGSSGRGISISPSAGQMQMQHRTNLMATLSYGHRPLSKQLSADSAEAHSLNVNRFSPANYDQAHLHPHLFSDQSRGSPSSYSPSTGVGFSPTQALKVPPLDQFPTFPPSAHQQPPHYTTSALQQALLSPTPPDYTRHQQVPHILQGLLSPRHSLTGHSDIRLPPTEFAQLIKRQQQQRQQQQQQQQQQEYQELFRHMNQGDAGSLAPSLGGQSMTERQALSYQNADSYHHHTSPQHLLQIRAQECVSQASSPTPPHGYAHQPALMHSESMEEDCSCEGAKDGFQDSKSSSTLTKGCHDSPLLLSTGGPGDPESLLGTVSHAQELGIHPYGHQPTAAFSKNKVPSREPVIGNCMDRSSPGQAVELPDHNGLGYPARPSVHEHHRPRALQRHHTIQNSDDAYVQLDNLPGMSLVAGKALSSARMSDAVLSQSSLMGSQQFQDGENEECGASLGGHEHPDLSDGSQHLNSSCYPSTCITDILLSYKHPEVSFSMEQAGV
HIPK4 (human), sequence (Q8NE63 whole entry, looked up): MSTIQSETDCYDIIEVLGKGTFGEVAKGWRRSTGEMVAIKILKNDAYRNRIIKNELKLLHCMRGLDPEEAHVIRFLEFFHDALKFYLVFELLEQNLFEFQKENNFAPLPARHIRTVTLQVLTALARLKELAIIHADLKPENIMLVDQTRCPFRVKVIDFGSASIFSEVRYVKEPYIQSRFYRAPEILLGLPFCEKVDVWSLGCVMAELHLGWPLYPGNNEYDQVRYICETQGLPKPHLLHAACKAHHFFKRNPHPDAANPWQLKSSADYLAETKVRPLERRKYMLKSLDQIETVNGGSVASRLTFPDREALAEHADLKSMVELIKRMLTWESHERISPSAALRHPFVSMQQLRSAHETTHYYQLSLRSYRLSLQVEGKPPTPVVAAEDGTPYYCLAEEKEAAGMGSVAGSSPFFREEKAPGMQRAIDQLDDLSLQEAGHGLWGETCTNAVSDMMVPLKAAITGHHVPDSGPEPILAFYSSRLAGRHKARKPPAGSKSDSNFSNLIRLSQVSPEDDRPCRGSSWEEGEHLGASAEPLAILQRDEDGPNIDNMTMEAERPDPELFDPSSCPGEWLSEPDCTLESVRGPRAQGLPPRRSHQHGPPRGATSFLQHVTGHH
NIM1 (human), sequence (Q8IY84 whole entry, looked up): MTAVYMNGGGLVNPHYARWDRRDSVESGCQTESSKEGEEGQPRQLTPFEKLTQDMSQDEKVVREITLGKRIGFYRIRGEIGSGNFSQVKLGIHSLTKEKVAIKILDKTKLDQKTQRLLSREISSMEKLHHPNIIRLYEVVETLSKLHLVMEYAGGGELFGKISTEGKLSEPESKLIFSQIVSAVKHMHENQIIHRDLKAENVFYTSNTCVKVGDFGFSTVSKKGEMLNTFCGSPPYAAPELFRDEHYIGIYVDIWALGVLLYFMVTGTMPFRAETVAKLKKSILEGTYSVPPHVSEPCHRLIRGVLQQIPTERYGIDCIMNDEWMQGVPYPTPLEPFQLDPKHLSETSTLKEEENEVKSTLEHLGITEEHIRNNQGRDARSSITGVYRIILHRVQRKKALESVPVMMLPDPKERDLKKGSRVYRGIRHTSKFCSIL

Structure (SMILES)	kinase still bound, per cent of control (PRKG1 (human)) [%]	kinase still bound, per cent of control (EPHB4 (human)) [%]	kinase still bound, per cent of control (HCK (human)) [%]	kinase still bound, per cent of control (MAPKAPK5 (human)) [%]	kinase still bound, per cent of control (STK38L (human)) [%]	kinase still bound, per cent of control (MYLK2 (human)) [%]	kinase still bound, per cent of control (EPHA1 (human)) [%]	kinase still bound, per cent of control (MYLK4 (human)) [%]	kinase still bound, per cent of control (MAPK1 (human)) [%]	kinase still bound, per cent of control (NIM1 (human)) [%]	kinase still bound, per cent of control [1] [%]	kinase still bound, per cent of control (DAPK2 (human)) [%]	kinase still bound, per cent of control (PRKD3 (human)) [%]	kinase still bound, per cent of control (PKMYT1 (human)) [%]	kinase still bound, per cent of control (AKT3 (human)) [%]	kinase still bound, per cent of control (RPS6KA4 KD2 (human)) [%]	kinase still bound, per cent of control (ABL1 (human)) [%]	kinase still bound, per cent of control (PIK3CD (human)) [%]	kinase still bound, per cent of control (EPHB2 (human)) [%]	kinase still bound, per cent of control (PHKG2 (human)) [%]	other results
COc1cc2ncn(-c3cc(OCc4ccccc4C(F)(F)F)c(C(N)=O)s3)c2cc1OC	100	87	72	91	100	59	84	17	86	88	8	36	100	60	100	70	60	78	94	100	kinase still bound, per cent of control (PIK3C2G (human)): 100%; kinase still bound, per cent of control (HIPK4 (human)): 15%; kinase still bound, per cent of control (SIK3 (human)): 76%; kinase still bound, per cent of control [2]: 100%; kinase still bound, per cent of control (STK38 (human)): 94%; kinase still bound, per cent of control (MAP3K6 (human)): 84%; kinase still bound, per cent of control (FRK (human)): 82%; kinase still bound, per cent of control (MYLK (human)): 50%; kinase still bound, per cent of control (DDR1 (human)): 100%; kinase still bound, per cent of control (RPS6KA6 KD1 (human)): 18%
COc1cc(N2CCN(C)CC2)ccc1Nc1ncc2c(n1)N(C)c1ccccc1C(=O)N2C	100	100	100	100	100	100	100	100	100	100	100	100	5.4	100	100	100	100	33	100	29	kinase still bound, per cent of control (ULK2 (human)): 0.5%; kinase still bound, per cent of control (LIMK2 (human)): 100%; kinase still bound, per cent of control (PIK3C2G (human)): 100%; kinase still bound, per cent of control (HIPK4 (human)): 100%; kinase still bound, per cent of control (SRPK1 (human)): 100%; kinase still bound, per cent of control (SIK3 (human)): 100%; kinase still bound, per cent of control (STK38 (human)): 100%; kinase still bound, per cent of control [3]: 100%; kinase still bound, per cent of control (MAP3K6 (human)): 100%; kinase still bound, per cent of control (FRK (human)): 2.6%; kinase still bound, per cent of control (MYLK (human)): 13%; kinase still bound, per cent of control (DDR1 (human)): 100%; kinase still bound, per cent of control (RPS6KA6 KD1 (human)): 100%
CCN(CC)CCCCNc1ncc2c(n1)N(C)C(=O)N(c1c(Cl)c(OC)cc(OC)c1Cl)C2	100	100	100	100	100	100	100	100	100	100	100	100	100	100	100	100	100	100	100	100	kinase still bound, per cent of control (ULK2 (human)): 100%; kinase still bound, per cent of control (LIMK2 (human)): 100%; kinase still bound, per cent of control (PIK3C2G (human)): 100%; kinase still bound, per cent of control (HIPK4 (human)): 100%; kinase still bound, per cent of control (SRPK1 (human)): 100%; kinase still bound, per cent of control (SIK3 (human)): 100%; kinase still bound, per cent of control (STK38 (human)): 100%; kinase still bound, per cent of control [3]: 100%; kinase still bound, per cent of control (MAP3K6 (human)): 100%; kinase still bound, per cent of control (FRK (human)): 100%; kinase still bound, per cent of control (MYLK (human)): 100%; kinase still bound, per cent of control (DDR1 (human)): 0.15%; kinase still bound, per cent of control (RPS6KA6 KD1 (human)): 100%
CS(=O)(=O)N1CCN(Cc2cc3nc(-c4cccc5[nH]ncc45)nc(N4CCOCC4)c3s2)CC1	100	100	100	100	100	100	100	100	100	100	100	100	100	100	100	100	100	5.2	100	100	kinase still bound, per cent of control (ULK2 (human)): 100%; kinase still bound, per cent of control (LIMK2 (human)): 100%; kinase still bound, per cent of control (HIPK4 (human)): 100%; kinase still bound, per cent of control (SRPK1 (human)): 100%; kinase still bound, per cent of control (SIK3 (human)): 100%; kinase still bound, per cent of control (STK38 (human)): 100%; kinase still bound, per cent of control [3]: 100%; kinase still bound, per cent of control (MAP3K6 (human)): 100%; kinase still bound, per cent of control (FRK (human)): 100%; kinase still bound, per cent of control (MYLK (human)): 100%; kinase still bound, per cent of control (DDR1 (human)): 100%; kinase still bound, per cent of control (RPS6KA6 KD1 (human)): 100%
